Entries after “also recorded” stand apart in the source; their conditions may differ.
Columns and labels:
myosin light chain = assay: Phosphorylation of the myosin light chain (protein blot, densitometry); assay type: cell-based; details: human endothelial lung cells; for increase in the content of phosphorylated myosin light chain by listeriolysin: 250 ng/ml of listeriolysin, 50 μg/ml of peptide
From the text: Human endothelial cells of the lungs, isolated from capillaries of the lungs, were acquired from the company Lonza.
(§1) The microbial toxins listeriolysin (LLO) and pneumolysin (PLY) were acquired from the University of Giessen.
Human endothelial cells of the lungs, isolated from capillaries of the lungs, were cultivated in a manner common in the laboratory.
Determination of Phosphorylation of the Myosin Light Chain
For the determination of phosphorylation of the myosin light chain and the influence of the peptide SEQ ID No. 1 on the phosphorylation, the previously cultivated human endothelial cells of the lungs were washed with phosphate buffer pH 7.4, which contained 1 mM orthovanadate. The cell contents was lysed by incubation of the cells with a solution of 20 mM tris buffer (pH 7.4), 150 mM mol/1 of NaCl, 1 mM EDTA, 1 mM EGTA, 1% Triton X-100, 2.5 mM sodiumpyrophosphate, 1 mM betaglycerophosphate, 1 mM sodiumvanadate, 1 μg/ml of leupeptine, 1 mM phenylmethylsulfonylfluoride. In addition, the cells were digested with ultrasound. The cell lysate was centrifuged in order to obtain the soluble components. The soluble cell lysate was subsequently applied to denaturing sodium dodecyl sulfate polyacrylamide gel electrophoresis in a manner common in the laboratory, and the proteins were separated according to their masses. Thereafter, the proteins were transferred onto nitrocellulose membranes. The protein blots were treated with a solution of 0.1% Tween 20 and 5% dry milk powder for 1 hour in a manner common in the laboratory. Subsequently, the protein blots were incubated with antibodies directed against either the myosin light chain or the phosphorylated myosin light chain.
In order to make either the myosin light chain or the phosphorylated myosin light chain visible, the antibodies were made visible on diagnostic film using chemiluminescence in a manner common in the laboratory. The signal strength was determined with densitometry, and the ratio of myosin light chain to phosphorylated myosin light chain was determined.

influenza A virus = assay: Course of disease in mice with viral lung infection; assay type: in vivo, BALB/c mice; details: influenza A infected mice
Procedure: The following animal study groups were examined in respect of the effect of peptide SEQ ID No. 1 on a viral lung infection:
Group 1. Negative control (PBS via nasal).
Group 2. Positive control (infection with approx. 2,000 units of influenza A virus via nasal).
Group 3. Test group (infection with approx. 2,000 units of influenza A virus via nasal, as well as intratracheal administration of 10 μg of peptide SEQ ID No. 1).
In each group, 6 BALB/c mice were used.
The following treatment scheme was followed:
Group 1: Administration of PBS via nasal.
Group 2: Infection of the mice with influenza virus A via nasal.
Group 3: Infection of the mice with influenza virus A via nasal and administration of peptide SEQ ID No. 1.
Days of treatment 0, 2, 4, 6, 8:
Group 1: Intratracheal administration of PBS.
Group 2: Intratracheal administration of PBS.
Group 3: Intratracheal administration of peptide SEQ ID No. 1.
Days of treatment 0 to 10:
Daily observation of body temperature, body weight and survival rate of the test animals.

[1] = test system: arterial endothelial cells; assay: Reactive oxygen molecules in endothelial cells under oxygen deficiency, measured by EPR; assay type: cell-based; details: oxygen deficiency (0.1% oxygen, hypoxic gas mixture), 50 μg/ml of peptide
Procedure: Cell Culture of Endothelial Cells
For the generation of reactive oxygen molecules, arterial endothelial cells were cultivated in an oxygen-deficient gas mixture of 0.1% oxygen, 5% […] and 94.9% nitrogen (hypoxic gas mixture). In control experiments, the gas concentrations were 21% oxygen, 5% […] and 74% nitrogen (normoxic gas mixture).
After 90 minutes under oxygen-deficient conditions, the endothelial cells were cultivated with 21% oxygen for a further 30 minutes. Thereafter, 20 μl of a solution consisting of 20 uM 1-hydroxy-3-methoxycarbonyl-2,2,5,5-tetramethylpyrrolidine HCl (CHM), 20 μM DPBS, 25 μM desferrioxamine and 5 μM diethyldithiocarbamate as well as 2 μl of DMSO were added to the cells.
Trypsinization of the Cells.
Following cell culture, the cells were individualized in a manner common in the laboratory by adding a trypsin solution. The endothelial cells were washed and suspended in 35 μl of a solution consisting of DPBS and 25 μM desferrioxamine and 5 μM diethyldithiocarbamate.
Measurement of the Electron Paramagnetic Resonance (EPR)
The determination of the electron paramagnetic resonance (EPR), also called electron spin resonance, serves the investigation of paramagnetic substances, e.g. for detection of unpaired electrons in reactive oxygen molecules (radicals of the oxygen). […]

[2] = Lavage-induced large animal ARDS model; assay type: in vivo, pigs
Procedure: Material & methods: With the consent of the competent animal protection commission, lung damage was induced in two pigs (25 kg) under general anesthesia by surfactant depletion (four-time bronchoalveolar lavage, 30 ml/kg of body weight each). Subsequently, 1 mg/kg of body weight AP301 (peptide SEQ ID No. 1) was endotracheally applied. Animal 1 (1) received a deep tracheal injection of the overall dose, while for animal 2 (2), nebulization of the same dosage over 30 min was performed. Thereafter, there was a five-hour ventilation period. The arterial oxygen partial pressure (paO2) was recorded using an intra-aortic real-time measuring probe (FOXY, Ocean Optics, USA) validated in advance. Spirometry and hemodynamics were permanently registered as well as measurements with the PiCCO technology performed at half-hour intervals.
The ventilation settings were constantly kept in the non-protective range (Pmax 40 mbar, tidal volume≥10 ml/kg of body weight, PEEP≤10 mbar, frequency 25-35/min) in order to avoid therapeutic effects. […] 162.8 mmHg (1) or 224.6 mmHg (2), respectively. With nebulization of AP301, this occurred delayed compared to the deep tracheal application, however, it was more pronounced.

[3] = test system: hyperpermeability of the lungs of mice; assay: Pneumolysin-induced hyperpermeability and acute lung damage in mice (Evans blue, leukocytes in bronchoalveolar liquid); details: 250 ng of pneumolysin and 50 μg of peptide per mouse intratracheal, 5.5 hours
[4] = test system: Human epithelial cells of the lungs of type H441; assay: Toxin-induced hyperpermeability, electric resistance (ECIS), epithelial cells; assay type: cell-based; details: 1 μg/ml of listeriolysin, 50 μg/ml of peptide
Procedure: (§2) Human epithelial cells of the lungs of type H441 were acquired from the company ATTC.
as §1
Epithelial cells of the lungs of type H441 were cultivated in a manner common in the laboratory in a commercial RPMI 1640 medium with the additives 2 mM L-glutamine, 1.5 g/l of sodium carbonate, 4.5 g/l of glucose, 10 mM HEPES buffer pH 7.4, 10% bovine serum. The ECIS experiments took place in serum-free medium.
In order to cause hyperpermeability, i.e. injuries of the endothelial cells and epithelial cells, the human epithelial cells of the lungs as well as the human endothelial cells of the lungs were cultivated in a manner common in the laboratory up to the formation of a continuous cell layer, and subsequently, the toxins listeriolysin or pneumolysin, respectively, were added.

[5] = test system: human endothelial cells of the lungs; assay: Toxin-induced hyperpermeability, transendothelial electric resistance (ECIS), endothelial cells; assay type: cell-based; details: 500 ng/ml of listeriolysin, 50 μg/ml of peptide
[6] = test system: epithelial sodium channel (ENaC); assay: Expression of the epithelial sodium channel by real-time PCR in H441 cells; assay type: cell-based, human; details: 50 μg/ml of peptide, H441 epithelial cells of the lungs
Procedure: as §2
Epithelial cells of the lungs of type H441 were cultivated in a manner common in the laboratory in a commercial RPMI 1640 medium with the additives 2 mM L-glutamine, 1.5 g/l of sodium carbonate, 4.5 g/l of glucose, 10 mM HEPES buffer pH 7.4, 10% bovine serum.
Verification of the Expression of the Epithelial Sodium Channel
In the cultivated epithelial cells, the expression of the sodium channel (ENaC) was determined by means of “real-time PCR”.

| Compound | increase in the content of phosphorylated myosin light chain by listeriolysin (myosin light chain) | content of phosphorylated myosin light chain, peptide alone (myosin light chain; 50 μg/ml of peptide without toxin) | reduction of body weight (influenza A virus; 10 μg of peptide intratracheal on days 0, 2, 4, 6, 8, within 10 days) | body temperature after 7 days (influenza A virus; 10 μg of peptide intratracheal, after 7 days) [°C] | mortality after 10 days (influenza A virus; 10 μg of peptide intratracheal, fraction of test animals, 10 days) | body temperature subsequently (after day 7) (influenza A virus; 10 μg of peptide intratracheal, recovery after day 7) [°C] | decrease in body weight (overall conclusion) (influenza A virus; in words) | lowering of the body temperature (overall conclusion) (influenza A virus; in words) | survival rate (overall conclusion) (influenza A virus; in words) | formation of reactive oxygen molecules by the endothelial cells [1] | paO2 increase, max. ([2]; animal 1, 1 mg/kg deep tracheal injection) [mmHg] | paO2 increase, max. ([2]; animal 2, 1 mg/kg nebulization over 30 min) [mmHg] | duration of continuous improvement of oxygenation ([2]; both pigs, 1 mg/kg endotracheally) | reduction of the extra-vascular lung water compared to the initial value following surfactant depletion ([2]; pigs, 1 mg/kg endotracheally, PiCCO) | undesired hemodynamic effects during application of the drug ([2]; pigs, 1 mg/kg of body weight endotracheally) | number of leukocytes in the bronchoalveolar liquid [3] | toxin-mediated development of hyperpermeability (Evans blue dye in lung tissue) [3] | hyperpermeability caused by the toxin listeriolysin (electric resistance) [4] | hyperpermeability caused by the toxin listeriolysin (electric resistance) [5] | expression of the sodium channel ENaC (mRNA) [6] |
| --- | --- | --- | --- | --- | --- | --- | --- | --- | --- | --- | --- | --- | --- | --- | --- | --- | --- | --- | --- | --- |
| C[C@@H]1NC(=O)CNC(=O)[C@H](CCC(=O)O)NC(=O)[C@@H]2CCCN2C(=O)[C@H]([C@@H](C)O)NC(=O)[C@H](CCC(=O)O)NC(=O)[C@H](CCCNC(=N)N)NC(=O)[C@H](CCC(N)=O)NC(=O)CNC(=O)[C@@H](N)CSSC[C@@H](C(=O)O)NC(=O)[C@H](Cc2ccc(O)cc2)NC(=O)[C@H](Cc2c[nH]c3ccccc23)NC(=O)[C@@H]2CCCN2C(=O)[C@H](CCCCN)NC(=O)[C@H](C)NC(=O)[C@H](CCC(=O)O)NC1=O [peptide SEQ ID No. 1, CGQRETPEGAEAKPWYC] | inhibits | no influence | approx. 10% | 35 | ⅓ | 37 | reduces the decrease | reduces the lowering | clearly increased | no reactive oxygen molecules are formed | 162.8 | 224.6 | about 1.5 hours | 15.8-52.5% | no undesired hemodynamic effects | clear reduction; also recorded: clearly less leukocytes | inhibition | inhibited | inhibited | triplication; also recorded: substantial increase |
| CGQREAPAGAAAKPWYC [peptide SEQ ID No. 3, reference compound] | no influence |  |  |  |  |  |  |  |  | does not result in an inhibition |  |  |  |  |  |  |  |  |  | no substantial increase |
